18 compounds from ChEMBL document CHEMBL3044608, “Synthesis and fungicidal activity of hydrazones containing 4-methylbenzo[d]thiazole moiety” (2012) can be followed below.

What all share (type): functional
One test relates to Phytophthora capsici. Description: microbe, parasite or virus in culture. To be noted: read-out: GI.
The test system of the next test is Ustilaginoidea. Description: microbe, parasite or virus in culture. To be noted: read-out: GI.
The test system of another test is Fusarium graminearum. Description: microbe, parasite or virus in culture. The settings on record: read-out: GI.
In another test the test system is Botrytis cinerea. Description: microbe, parasite or virus in culture. To be noted: read-out: GI.
The subject of test [1] is Rhizoctonia solani. Description: microbe, parasite or virus in culture. To be noted: read-out: GI.
Description: Fungicidal activity against Rhizoctonia solani assessed as inhibition rate of circle mycelium growth at 500 ug/ml
The test system of a further test is Sclerotinia sclerotiorum. Description: microbe, parasite or virus in culture. The settings on record: read-out: GI.
The subject of a further test is Alternaria alternata. Description: microbe, parasite or virus in culture. The settings on record: read-out: GI.
Test [2] relates to Rhizoctonia solani. To be noted: at 400 µg/mL.
Description: Fungicidal activity against Rhizoctonia solani assessed as inhibition rate of circle mycelium growth at 400 ug/ml relative to control
In test [3] the test system is Rhizoctonia solani. The settings on record: at 100 µg/mL.
Description: Fungicidal activity against Rhizoctonia solani assessed as inhibition rate of circle mycelium growth at 100 ug/ml relative to control
Test [4] deals with Rhizoctonia solani. The settings on record: at 200 µg/mL.
Description: Fungicidal activity against Rhizoctonia solani assessed as inhibition rate of circle mycelium growth at 200 ug/ml relative to control

Description for Alternaria alternata: Fungicidal activity against Alternaria alternata assessed as inhibition rate of circle mycelium growth at 500 ug/ml
Description for Botrytis cinerea: Fungicidal activity against Botryotinia fuckeliana assessed as inhibition rate of circle mycelium growth at 500 ug/ml
Description for Phytophthora capsici: Fungicidal activity against Phytophthora capsici assessed as inhibition rate of circle mycelium growth at 500 ug/ml
Description for Sclerotinia sclerotiorum: Fungicidal activity against Sclerotinia sclerotiorum assessed as inhibition rate of circle mycelium growth at 500 ug/ml
Description for Ustilaginoidea: Fungicidal activity against Ustilaginoidea oryzae assessed as inhibition rate of circle mycelium growth at 500 ug/ml

With `Cc1cccc2sc(NN)nc12`, the inhibition of growth at 500 µg/mL in the test with Phytophthora capsici worked out at 0%; in the test with Ustilaginoidea, 0%; with Fusarium graminearum, 0%; in the test on Botrytis cinerea, 22.3%; in the test with Rhizoctonia solani [1] it was 0%; in the test on Sclerotinia sclerotiorum, 16.2%. The inhibition of growth at 500 µg/mL in the test on Alternaria alternata worked out at 13.6%.
On to `C/C(=N\Nc1nc2c(C)cccc2s1)c1ccc(F)cc1`, for which the inhibition of growth at 500 µg/mL was determined as 0% with Phytophthora capsici; 0% in the test with Ustilaginoidea; 0% with Fusarium graminearum; 0% with Botrytis cinerea; 0% in the test on Rhizoctonia solani [1]; 28.1% in the test on Sclerotinia sclerotiorum. Moreover, the inhibition of growth at 500 µg/mL with Alternaria alternata was 0%.
For the compound `CC(C)=NNc1nc2c(C)cccc2s1`, the inhibition of growth at 500 µg/mL with Phytophthora capsici was 0%; with Ustilaginoidea, 20%; in the test with Fusarium graminearum, 0%; with Botrytis cinerea it was 70.8%; in the test on Rhizoctonia solani [1], 0%; with Sclerotinia sclerotiorum, 59.4%. For the same compound, the inhibition of growth at 500 µg/mL with Alternaria alternata worked out at 47.8%.
Take `CC/C(C)=N/Nc1nc2c(C)cccc2s1`: the inhibition of growth at 500 µg/mL stood at 0% with Phytophthora capsici; 40% with Ustilaginoidea; 0% in the test with Fusarium graminearum; 70.8% in the test with Botrytis cinerea; 90% in the test with Rhizoctonia solani [1]; 87.5% in the test with Sclerotinia sclerotiorum. In the test with Alternaria alternata, the inhibition of growth at 500 µg/mL came to 47.8%.
For `C/C(=N\Nc1nc2c(C)cccc2s1)c1ccccc1`, the inhibition of growth at 500 µg/mL in the test with Phytophthora capsici is 0%; with Ustilaginoidea, 0%; in the test on Fusarium graminearum, 0%; with Botrytis cinerea it was 0%; in the test on Rhizoctonia solani [1] it was 0%; with Sclerotinia sclerotiorum, 31.3%. Further, the inhibition of growth at 500 µg/mL in the test on Alternaria alternata was determined as 21.7%.
Take `C/C(=N\Nc1nc2c(C)cccc2s1)c1c(F)cccc1F`: the figures for the Efficacy in the test with Rhizoctonia solani [2], in the test on Rhizoctonia solani [3] and with Rhizoctonia solani [4] were 65%, 35% and 45%, respectively. For the same compound, the inhibition of growth at 500 µg/mL was 0% with Phytophthora capsici; 0% in the test with Ustilaginoidea; 0% in the test on Fusarium graminearum; 0% in the test on Botrytis cinerea; 95% in the test with Rhizoctonia solani [1]; 0% with Sclerotinia sclerotiorum. Moreover, the inhibition of growth at 500 µg/mL in the test on Alternaria alternata turned out to be 0%.
With `C/C(=N\Nc1nc2c(C)cccc2s1)c1ccc(Cl)cc1`, the inhibition of growth at 500 µg/mL with Phytophthora capsici is 0%; in the test on Ustilaginoidea, 0%; in the test with Fusarium graminearum, 0%; with Botrytis cinerea it was 0%; in the test with Rhizoctonia solani [1], 0%; in the test with Sclerotinia sclerotiorum it was 9.4%. Besides, in the test with Alternaria alternata, the inhibition of growth at 500 µg/mL is 0%.
In the case of `C/C(=N\Nc1nc2c(C)cccc2s1)c1ccc(C)cc1`, the inhibition of growth at 500 µg/mL with Phytophthora capsici came out at 0%; in the test with Ustilaginoidea, 5%; in the test with Fusarium graminearum it was 0%; with Botrytis cinerea, 0%; with Rhizoctonia solani [1], 30%; with Sclerotinia sclerotiorum, 28.1%. In addition, in the test with Alternaria alternata, the inhibition of growth at 500 µg/mL is 0%.
As for `C/C(=N\Nc1nc2c(C)cccc2s1)c1ccc([N+](=O)[O-])cc1`, the inhibition of growth at 500 µg/mL was determined as 0% in the test with Phytophthora capsici; 0% with Ustilaginoidea; 0% with Fusarium graminearum; 0% with Botrytis cinerea; 90% in the test with Rhizoctonia solani [1]; 0% in the test with Sclerotinia sclerotiorum. Further, the inhibition of growth at 500 µg/mL in the test with Alternaria alternata came to 0%.
As to `C/C(=N\Nc1nc2c(C)cccc2s1)c1cccc(Cl)c1`, the inhibition of growth at 500 µg/mL in the test on Phytophthora capsici is 0%; in the test with Ustilaginoidea, 0%; in the test with Fusarium graminearum, 0%; in the test on Botrytis cinerea it was 0%; with Rhizoctonia solani [1], 0%; with Sclerotinia sclerotiorum it was 43.8%. Also, the inhibition of growth at 500 µg/mL in the test on Alternaria alternata worked out at 0%.
On to `COc1ccccc1/C(C)=N/Nc1nc2c(C)cccc2s1`, for which the inhibition of growth at 500 µg/mL with Phytophthora capsici was found to be 0%; in the test with Ustilaginoidea, 0%; in the test on Fusarium graminearum, 0%; in the test on Botrytis cinerea, 0%; in the test with Rhizoctonia solani [1] it was 60%; in the test on Sclerotinia sclerotiorum, 3.1%. For the same compound, in the test with Alternaria alternata, the inhibition of growth at 500 µg/mL was 0%.
Turning to `COc1ccc(/C(C)=N/Nc2nc3c(C)cccc3s2)cc1`, the Efficacy is on record as 50% with Rhizoctonia solani [2], 10% in the test with Rhizoctonia solani [3] and 20% with Rhizoctonia solani [4]. The inhibition of growth at 500 µg/mL in the test with Phytophthora capsici was 0%; in the test on Ustilaginoidea, 0%; with Fusarium graminearum, 0%; in the test on Botrytis cinerea it was 37.5%; in the test with Rhizoctonia solani [1] it was 95%; in the test on Sclerotinia sclerotiorum it was 50%. The inhibition of growth at 500 µg/mL with Alternaria alternata worked out at 30.4%.
`C/C(=N\Nc1nc2c(C)cccc2s1)c1ccc(Br)cc1`: the inhibition of growth at 500 µg/mL with Phytophthora capsici came out at 0%; in the test on Ustilaginoidea, 0%; in the test with Fusarium graminearum, 0%; in the test with Botrytis cinerea it was 0%; with Rhizoctonia solani [1], 50%; in the test on Sclerotinia sclerotiorum, 46.9%. The inhibition of growth at 500 µg/mL in the test with Alternaria alternata is 0%.
Regarding `C/C(=N\Nc1nc2c(C)cccc2s1)C(C)C`, the inhibition of growth at 500 µg/mL in the test with Phytophthora capsici came out at 0%; with Ustilaginoidea, 5%; in the test with Fusarium graminearum, 0%; with Botrytis cinerea it was 70.8%; in the test on Rhizoctonia solani [1] it was 60%; with Sclerotinia sclerotiorum, 90.6%. In addition, in the test on Alternaria alternata, the inhibition of growth at 500 µg/mL came to 56.5%.
Regarding `Cc1cccc2sc(NN=C3CCCC3)nc12`, the inhibition of growth at 500 µg/mL is 0% in the test with Phytophthora capsici; 25% in the test on Ustilaginoidea; 36.8% in the test on Fusarium graminearum; 70.8% in the test with Botrytis cinerea; 85% in the test on Rhizoctonia solani [1]; 62.5% with Sclerotinia sclerotiorum. The inhibition of growth at 500 µg/mL with Alternaria alternata was determined as 52.2%.
For the compound `Cc1cccc2sc(NN=C3CCCCC3)nc12`, the inhibition of growth at 500 µg/mL with Phytophthora capsici amounted to 0%; with Ustilaginoidea it was 0%; with Fusarium graminearum, 0%; in the test on Botrytis cinerea it was 66.7%; with Rhizoctonia solani [1], 0%; in the test with Sclerotinia sclerotiorum, 43.8%. Further, the inhibition of growth at 500 µg/mL in the test on Alternaria alternata amounted to 47.8%.
Take `CCCC1COC(Cn2cncn2)(c2ccc(Cl)cc2Cl)O1` (stereo not drawn) [PROPICONAZOLE]: the figures for the Efficacy with Rhizoctonia solani [2], in the test with Rhizoctonia solani [3] and in the test with Rhizoctonia solani [4] were 90%, 40% and 60%, respectively. For the same compound, the inhibition of growth at 500 µg/mL with Phytophthora capsici was 0%; in the test on Ustilaginoidea, 0%; in the test on Fusarium graminearum it was 0%; with Botrytis cinerea it was 0%; in the test with Rhizoctonia solani [1], 90%; in the test on Sclerotinia sclerotiorum it was 87.5%. The inhibition of growth at 500 µg/mL in the test with Alternaria alternata amounted to 0%.
As to `Cc1cccc2sc3nncn3c12` [TRICYCLAZOLE], the Efficacy is on record as 57% with Rhizoctonia solani [2], 22% in the test on Rhizoctonia solani [3] and 33% in the test with Rhizoctonia solani [4]. For the same compound, the inhibition of growth at 500 µg/mL in the test on Phytophthora capsici stood at 27.8%; in the test with Ustilaginoidea it was 0%; in the test with Fusarium graminearum it was 13.6%; with Botrytis cinerea it was 52.8%; in the test with Rhizoctonia solani [1], 85%; in the test on Sclerotinia sclerotiorum it was 72.7%. In addition, the inhibition of growth at 500 µg/mL in the test on Alternaria alternata amounted to 0%.
